Consider twelve molecules from ChEMBL document CHEMBL6074633, “Assessing the inhibitory effects of some secondary amines, thioureas and 1,3-dimethyluracil conjugates of (-)-cytisine and thermopsine on the RNA-dependent RNA polymerase of SARS-CoV-1 and SARS-CoV-2” (Bioorg Med Chem Lett, 2024).

In data set [1] the target is Replicase polyprotein 1ab (Severe acute respiratory syndrome coronavirus 2) (UniProt P0DTD1). Briefly: Inhibition of SARS CoV-2 RdRp at 10 uM incubated for 2 hrs by fluorescence based assay relative to control.
The test system of data set [2] is SARS-CoV-2. Briefly: Antiviral activity against SARS CoV-2 replicon-based SRIP. It is filed as functional, organism-based. The note with it: Severe acute respiratory syndrome coronavirus 2.
Data set [3] relates to SARS-CoV. It is filed as functional, organism-based. To be noted: Severe acute respiratory syndrome-related coronavirus; Calu-3; dose <= 1.0 µM, time 96.0 hrs.
Data set [4] addresses Replicase polyprotein 1ab (Severe acute respiratory syndrome coronavirus 2) (UniProt P0DTD1). Briefly: (§1) Inhibition of SARS CoV-2 RdRp incubated for 2 hrs by fluorescence based assay.
The target in data set [5] is Replicase polyprotein 1ab (Severe acute respiratory syndrome coronavirus 2, UniProt P0DTD1). The description is as §1.
Data set [6] relates to SARS-CoV. Type of data set: functional, organism-based. To be noted: Severe acute respiratory syndrome-related coronavirus.
The test system of data set [7] is SARS-CoV-2. Type of data set: functional, organism-based.
In data set [8] the test system is SARS-CoV-2. It is filed as functional, organism-based. The note with it: Severe acute respiratory syndrome coronavirus 2; Calu-3; dose <= 1.0 µM, time 96.0 hrs.
For data set [9], the system named is SARS-CoV. It is filed as functional, organism-based. The note with it: Severe acute respiratory syndrome-related coronavirus; Calu-3; dose <= 1.0 µM, time 120.0 hrs.
The test system of data set [10] is SARS-CoV-2. It is filed as functional, organism-based. To be noted: Severe acute respiratory syndrome coronavirus 2; Calu-3; dose <= 1.0 µM, time 120.0 hrs.
The nature of data set [11]: Cytotoxicity against human Calu-3 cells assessed as cell viability incubated for 96 hrs by MTT assay. Type of data set: toxicity, cell-based. On the technique in general: Formazan colour is commonly taken as a measure of viable cells.
The nature of data set [12]: in vitro. The note with it: human, Calu-3 cells.

Activity calls are given as the source filed them. No cut-off for these calls is given here.

With `CN1C[C@@H]2C[C@H](C1)c1ccc(NCc3ccccc3O)c(=O)n1C2`, in data set [1], the inhibition – broadly, the drop in the measured response relative to a control, in per cent – was less than 38%.
For `CCC(CC)COC(=O)[C@H](C)N[P@](=O)(OC[C@H]1O[C@@](C#N)(c2ccc3c(N)ncnn23)[C@H](O)[C@@H]1O)Oc1ccccc1` [REMDESIVIR], in data set [2], a half-maximal response (EC50) required 170 nM.
On to `O=c1ccc(Cl)c2n1C[C@H]1C[C@@H]2CN(C(=S)Nc2ccccc2)C1`, for which the inhibition in data set [1] is less than 38%.
Take `CC(C)C[C@H](NC(=O)OCc1ccccc1)C(=O)N[C@@H](C[C@@H]1CCNC1=O)C(O)S(=O)(=O)O` (some centres undefined): the EC50 (as a rule, the concentration that produces a half-maximal response) in data set [2] turned out to be 170 nM.
As to `COC(=O)CN1C[C@@H]2C[C@H](C1)c1ccc(NCc3cn(C)c(=O)n(C)c3=O)c(=O)n1C2`, the inhibition in data set [1] was less than 38%.
`O=c1cccc2n1C[C@H]1C[C@@H]2CN(C(=S)Nc2ccccc2)C1` displayed an inhibition in data set [1] of less than 38%.
With `Cn1cc(CNc2ccc3n(c2=O)C[C@H]2C[C@@H]3CN(Cc3ccccc3)C2)c(=O)n(C)c1=O`, the outcome in data set [3], in [8], in data set [9] and in [10] was Active. The inhibition was 64% in [1] and “Dose-dependent-effect” in data set [4]. For the same molecule, the IC50 – broadly, the midpoint of a concentration-inhibition curve – in data set [5] stood at 7800 nM. Also, the EC50 in data set [6] (Calu-3, 96 h) is 120 nM; in data set [7] (Severe acute respiratory syndrome coronavirus 2, Calu-3, 96 h) it was 1470 nM. Also, the Activity entry in [6] (Calu-3, dose 0.1-10 µM, time 96.0 hrs) was “Dose-dependent-effect”; in data set [7] (Severe acute respiratory syndrome coronavirus 2, Calu-3, dose 0.1-10 µM, time 96.0 hrs), “Dose-dependent-effect”. Besides, the CC50 (commonly the concentration giving 50% cytotoxicity) at 96 h in data set [11] is more than 100000 nM. In addition, the selectivity ratio in [12] was more than 68.
As for `CN1C[C@@H]2C[C@H](C1)c1ccc(NC/C=C/c3ccccc3)c(=O)n1C2`, in data set [1], the inhibition was less than 38%.
For the molecule `Cn1cc(CNc2ccc3n(c2=O)C[C@H]2C[C@@H]3CN3CCCC[C@@H]23)c(=O)n(C)c1=O`, the inhibition in data set [1] was less than 38%.
`C=CCNC(=S)N1C[C@@H]2C[C@H](C1)c1ccc([N+](=O)[O-])c(=O)n1C2` came in with an inhibition in [1] of less than 38%.
In turn, `CC(C)NC(=S)Nc1ccc2n(c1=O)C[C@H]1C[C@@H]2CN(C)C1` registered an inhibition in [1] of less than 38%.
`CCOC(=O)CNC(=S)Nc1ccc2n(c1=O)C[C@H]1C[C@@H]2CN(C)C1`: the inhibition in [1] is less than 38%.
